pIC50: −log10 of the molar value.
Target: Adenosine kinase (Rattus norvegicus, UniProt Q64640)
Test: ADK Inhibition Assay
Conditions: pH 7.5; 23 °C
Description: ADK activity was monitored by a radiochemical assay, which measures the conversion of radioactive Ado ([U-14C] adenosine or [2-3H] adenosine) to AMP in the presence of ATP and MgCl2. The radioactivity incorporated was directly proportional to the conversion rate. The reaction was terminated by aliquoting the reaction mixture onto DE-81 anion exchange filter disks. The filter disks were then dried, washed, and counted. Bound radioactivity was determined by standard scintillation spectrometry at an efficiency of 55%.

Adenosine kinase, sequence (Q64640 whole entry): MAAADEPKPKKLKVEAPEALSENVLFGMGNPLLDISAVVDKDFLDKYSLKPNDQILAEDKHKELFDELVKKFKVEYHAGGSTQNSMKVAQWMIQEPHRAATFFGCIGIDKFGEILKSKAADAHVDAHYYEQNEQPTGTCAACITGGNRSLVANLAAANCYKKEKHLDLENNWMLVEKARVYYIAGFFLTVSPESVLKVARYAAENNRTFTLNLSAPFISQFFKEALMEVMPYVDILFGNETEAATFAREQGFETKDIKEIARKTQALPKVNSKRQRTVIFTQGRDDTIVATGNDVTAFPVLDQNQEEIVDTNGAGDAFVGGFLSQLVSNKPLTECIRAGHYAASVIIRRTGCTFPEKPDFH

- pIC50: < 6.00
SMILES: Cc1nc(N)c(-c2ccccc2)c(C#Cc2ccc(N(C)C)cc2)n1
